Measured values: PMC4684500, “Diversity, Antimicrobial Action and Structure-Activity Relationship of Buffalo Cathelicidins” (PLoS ONE, 2015)
In brackets after ≈: the same amount, converted by molar mass. Where two headings read alike, the source gives them in different places. Where no end group is shown, it is not given here.

What was measured:
[1] = system: Listeria monocytogenes ATCC-19111; type: cell-based
Experimental: (§1) The buCATHL4 peptides were synthesized by G L Biochem (Shanghai, China). Purity and molecular mass of the peptides were provided by the vendors using HPLC and mass spectrometry, respectively. The purity of all peptides were >98%. Minimum inhibitory concentrations (MIC) of buCATHL4s against the pathogenic microorganisms were tested by broth micro-dilution technique. Briefly, bacteria were grown in Mueller Hinton broth (Sigma-Aldrich, MO, USA) at 37°C. The OD of early-log phase cultures were adjusted to 0.08–0.1 and further diluted (1:200) to keep inoculums concentration nearly 10^6 colony forming units (CFU)/ml. Diluted peptides (10 μl) were mixed with equi-volume solution A (0.02% acetic acid containing 0.4% BSA) and were serially diluted in the solution B (0.01% acetic acid containing 0.2% BSA). Bacterial inoculums (90 μl) were mixed with serially diluted peptides and incubated at 37°C for 24 h without shaking. […] All peptides were tested in triplicate. For time kill kinetics experiments, peptides (1×, 2× and 4× MIC) were added to bacterial suspension of Staphylococcus aureus, Salmonella enterica and Pseudomonas aeruginosa, as described in the MIC determination method. Aliquots of representative wells were diluted and plated on Muller Hinton agar plates at 0, 1, 4, 12 and 24 h intervals. Water with 0.01% acetic acid and ampicillin (100 mg/ml) were taken as […] controls, respectively. The results were represented as log CFU/ml.

[2] = system: Pseudomonas aeruginosa NCDC-0105; type: cell-based
Experimental: as §1

[3] = system: Pseudomonas aeruginosa ATCC-27853; type: cell-based
Experimental: as §1

[4] = system: Salmonella typhimurium ATCC-14028; type: cell-based
Experimental: as §1

[5] = system: Bacillus cereus NCDC-0240; type: cell-based
Experimental: as §1

[6] = system: Escherichia coli MTCC-0723; type: cell-based
Experimental: as §1

[7] = system: Acinetobacter johnsonii NCDC-0072; type: cell-based
Experimental: as §1

S. typhimurium [8] = assay: Scanning and transmission electron microscopy; type: cell-based, Salmonella typhimurium; conditions: for Morphological change of S. typhimurium cells (SEM/TEM): increasing concentrations (>2× MIC)
Experimental: (§2) Early log phase cultures of S. aureus and S. enterica were subjected to different concentration of peptides and incubated at 37°C. The bacterial pellets after centrifugation (5000 g for 10 min) were washed with 0.1M cacodylate buffer (pH 7.2) and were fixed in 2.5% gluteraldehyde at 4°C for 2 h. For scanning electron microscopy, bacteria were dehydrated using gradient series of ethanol wash (30, 50, 70, 90 and absolute). The samples were air-dried overnight, gold coated (Eiko IB-3 ion coater), and viewed in a Zeiss EVO 18 Special Edition SEM. For transmission electron microscopy, fixed samples were adhered to hexagonal PELCO® Grids (Ted Pella, Inc. USA), washed once with Mili-Q water and stained with uranyl acetate (2%) buffer. Samples were viewed in a JEM 1011 (Jeol, Japan) microscope.

[9] = system: Stahylococcus aureus NCDC-0111; type: cell-based, Staphylococcus aureus
Experimental: as §1

[10] = system: Stahylococcus aureus ATCC-29213; type: cell-based, Staphylococcus aureus
Experimental: as §1

S. typhimurium [11] = assay: LIVE/DEAD BacLight membrane permeability assay; type: cell-based, Salmonella typhimurium; conditions: peptide 200μM, SYTO9/PI; for Membrane permeability of latent (stationary phase) S. typhimurium: stationary phase culture, proportion of cells affected comparatively less; for Clumping (agglutination) of S. typhimurium after peptide addition: log phase culture
Experimental: (§3) The damage to bacterial membrane following addition of peptide was assessed by BacLight kit (Life Technologies, CA, USA). Aliquots of S. aureus, S. enterica and P. aeruginosa cultures from exponential (shaking incubation for 2, 3, and 4 h, respectively) and stationary phases (overnight incubation) were harvested by centrifugation (5000 g for 10 min) and diluted in PBS. Peptides (200μM) were added to bacterial suspension and 50 μl aliquots were removed immediately or after 1 h incubation. Equi-volume mixtures of SYTO9/PI (3 μl/ml bacterial suspension) were added to these aliquots and fluorescent micrographs of stained bacteria were taken at 1000×magnification in a microscope (Olympus BX51 fitted with DP71 camera) with a fluorescence illuminator system.

S. aureus [12] = assay: Time kill kinetics; type: cell-based, Staphylococcus aureus; conditions: for Growth inhibition of S. aureus in time kill kinetics: peptide at 2× MIC, plating at 0, 1, 4, 12, 24 h; for Time to complete elimination of S. aureus: peptide at 4× MIC, time kill kinetics
Experimental: as §1

P. aeruginosa biofilm = assay: Biofilm assay (crystal violet); type: cell-based, Pseudomonas aeruginosa; conditions: 24 h 37°C, crystal violet A570
Experimental: (§4) The efficacy of peptides against biofilms of S. aureus and P. aeruginosa was determined using previously described method. Overnight grown bacterial cultures were diluted (1:100) and 200 μl suspensions were mixed with each peptide (1× and 2× MIC) in a 96 well plate and incubated for 24 h at 37°C. Biofilms were fixed with paraformadehyde solution, cultures were decanted and 0.1% crystal violet solution was added to stain the film. The plate was rinsed thrice with water and air-dried. The stain was dissolved by 100 μl of acetic acid (30%) and absorbance was measured at 570 nm. The experiment was performed in triplicate, 30% acetic acid was taken as a blank.

S. aureus biofilm = assay: Biofilm assay (crystal violet); type: cell-based, Staphylococcus aureus; conditions: peptide at 1× and 2× MIC, 24 h 37°C, crystal violet A570
Experimental: as §4

[13] = system: S. aureus, S. typhimurium and P. aeruginosa; assay: Time kill kinetics, three pathogens; type: cell-based; conditions: peptide at 4× MIC
Experimental: as §1

[14] = system: bacterial biofilm (S. aureus and P. aeruginosa); assay: Biofilm assay, overall statement; type: cell-based; conditions: summary in discussion
Experimental: as §4

S. aureus [15] = assay: Scanning and transmission electron microscopy; type: cell-based, Staphylococcus aureus
Experimental: as §2

S. aureus [16] = assay: LIVE/DEAD BacLight membrane permeability assay; type: cell-based, Staphylococcus aureus; conditions: peptide 200μM, log phase culture, SYTO9/PI
Experimental: as §3

[17] = increasing concentrations (>2× MIC)

| Molecule | MIC ([1]; ATCC-19111, 24 h) [µM] | MIC ([2]; NCDC-0105, 24 h) [µM] | MIC ([3]; ATCC-27853, 24 h) [µM] | MIC ([4]; ATCC-14028, 24 h) [µM] | MIC ([5]; NCDC-0240, 24 h) [µM] | MIC ([6]; MTCC-0723, 24 h) [µM] | MIC ([7]; 24 h) [µM] | MIC ([9]; 24 h) [µM] | MIC ([10]; ATCC-29213, 24 h) [µM] | Membrane permeability of latent (stationary phase) S. typhimurium (S. typhimurium [11]) | Growth inhibition of S. aureus in time kill kinetics (S. aureus [12]) | Reduction in biofilm growth of P. aeruginosa (P. aeruginosa biofilm; peptide at 1× and 2× MIC) | Reduction in biofilm growth of S. aureus (S. aureus biofilm) | Killing rate compared with indolicidin and ampicillin [13] | Effect against growth of bacterial biofilms (overall) [14] | Morphological change of S. typhimurium cells (SEM/TEM) (S. typhimurium [8]) | Morphological change of S. aureus cells (SEM/TEM) (S. aureus [15]; [17]) | Morphological change of S. aureus cells (SEM/TEM) (S. aureus [15]; lower concentrations (≤2× MIC)) | Clumping (agglutination) of S. typhimurium after peptide addition (S. typhimurium [11]) | Time to complete elimination of S. aureus (S. aureus [12]) [h] | further results |
| --- | --- | --- | --- | --- | --- | --- | --- | --- | --- | --- | --- | --- | --- | --- | --- | --- | --- | --- | --- | --- | --- |
| RIRFPWPWRWPWWPRFRG [buCATHL4D] | 6 | 50 | 25 | 50 | 1.5 | 6 | 50 | 12.5 | 6 | affected membrane permeability | complete growth inhibition | substantial | substantial | comparatively better killing rate |  |  |  |  |  |  | Formation of negative curvature on membrane (SEM/TEM) (S. typhimurium [8]; more evident with S. typhimurium): Formation of negative curvature |
| AIPWSIWWRLLFKG [buCATHL4F] | 3 | 50 | 100 | 0.2 | 100 | >200 | 200 | 6 | 6 | affected membrane permeability | complete growth inhibition |  |  |  | no marked effect | budding | budding | swelling and blebing | immediate clumping | 4 | Reduction in biofilm growth of P. aeruginosa (P. aeruginosa biofilm; peptide at 2× MIC): considerably; Clumping (agglutination) of S. aureus after peptide addition (S. aureus [16]): immediate clumping |
| CC[C@H](C)[C@H](N)C(=O)N[C@@H](CC(C)C)C(=O)N1CCC[C@H]1C(=O)N[C@@H](Cc1c[nH]c2ccccc12)C(=O)N[C@@H](CCCCN)C(=O)N[C@@H](Cc1c[nH]c2ccccc12)C(=O)N1CCC[C@H]1C(=O)N[C@@H](Cc1c[nH]c2ccccc12)C(=O)N[C@@H](Cc1c[nH]c2ccccc12)C(=O)N1CCC[C@H]1C(=O)N[C@@H](Cc1c[nH]c2ccccc12)C(=O)N[C@@H](CCCNC(=N)N)C(=O)N[C@@H](CCCNC(=N)N)C(N)=O [Indolicidin, indolicidin, reference compound] |  |  |  |  |  |  |  |  |  |  |  | effective | effective |  |  |  |  |  |  |  | MIC ([1]; Listeria monocytogenes ATCC-19111, broth microdilution, Mueller Hinton broth, ~10^6 CFU/ml, 37°C 24 h, no visible turbidity, triplicate): 6 µM (≈ 11.4 µg/mL); MIC ([2]; Pseudomonas aeruginosa NCDC-0105, broth microdilution, Mueller Hinton broth, ~10^6 CFU/ml, 37°C 24 h, no visible turbidity, triplicate): 12.5 µM (≈ 23.8 µg/mL); MIC ([3]; Pseudomonas aeruginosa ATCC-27853, broth microdilution, Mueller Hinton broth, ~10^6 CFU/ml, 37°C 24 h, no visible turbidity, triplicate): 25 µM (≈ 47.7 µg/mL); MIC ([4]; Salmonella typhimurium ATCC-14028, broth microdilution, Mueller Hinton broth, ~10^6 CFU/ml, 37°C 24 h, no visible turbidity, triplicate): 12.5 µM (≈ 23.8 µg/mL); MIC ([5]; Bacillus cereus NCDC-0240, broth microdilution, Mueller Hinton broth, ~10^6 CFU/ml, 37°C 24 h, no visible turbidity, triplicate): 0.8 µM (≈ 1.53 µg/mL); MIC ([6]; Escherichia coli MTCC-0723, broth microdilution, Mueller Hinton broth, ~10^6 CFU/ml, 37°C 24 h, no visible turbidity, triplicate): 0.8 µM (≈ 1.53 µg/mL); MIC ([7]; Acinetobacter johnsonii NCDC-0072, broth microdilution, Mueller Hinton broth, ~10^6 CFU/ml, 37°C 24 h, no visible turbidity, triplicate): 6 µM (≈ 11.4 µg/mL); MIC ([9]; Stahylococcus aureus NCDC-0111, broth microdilution, Mueller Hinton broth, ~10^6 CFU/ml, 37°C 24 h, no visible turbidity, triplicate): 1.5 µM (≈ 2.86 µg/mL); MIC ([10]; Stahylococcus aureus ATCC-29213, broth microdilution, Mueller Hinton broth, ~10^6 CFU/ml, 37°C 24 h, no visible turbidity, triplicate): 3 µM (≈ 5.72 µg/mL) |
| AIPWSIWWHLLFKG [buCATHL4G] | 1.5 | 200 | 200 | 3 | 50 | 50 | 25 | 12.5 | 0.8 |  |  |  |  | comparatively better killing rate | no marked effect | budding | budding | swelling and blebing | immediate clumping | 4 | Clumping (agglutination) of S. aureus after peptide addition (S. aureus [16]): immediate clumping |
| GLPWILLRWLFFRG [buCATHL4A] | 6 | >200 | >200 | 100 | 100 | 200 | 200 | 25 | 3 |  |  |  |  |  |  |  |  |  |  |  |  |
